Laboratory results taken from PMC7156458, “Synthetic biology based construction of biological activity-related library of fungal decalin-containing diterpenoid pyrones” (Nature Communications, 2020).

Target: Aβ42 (Homo sapiens, UniProt P05067)
Assay: Th-T (thioflavin-T) assay of Aβ42 aggregation
Assay type: biochemical
Conditions: for Th-T fluorescence, mean of three wells: compound at 50

Sequence of Aβ42 (P05067 672-713): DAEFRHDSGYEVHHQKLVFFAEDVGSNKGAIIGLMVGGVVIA

C=C1CCC2C(C)(CCC=C(C)C)C(O)CCC2(C)C1Cc1c(OC)oc(CO)c(C(=O)OC)c1=O (stereo not drawn) [Compound 13]
Th-T fluorescence, mean of three wells (reading M54 of time course): 0.4653 | Th-T fluorescence, mean of three wells (reading M55 of time course): 0.4661 | Th-T fluorescence, mean of three wells (reading M56 of time course): 0.4654 | Th-T fluorescence, mean of three wells (reading M57 of time course): 0.4695 | Th-T fluorescence, mean of three wells (reading M58 of time course): 0.4698 | Th-T fluorescence, mean of three wells (reading M59 of time course): 0.4665 | Th-T fluorescence, mean of three wells (reading M60 of time course): 0.4689 | Th-T fluorescence, mean of three wells (reading M61 of time course): 0.471 | Th-T fluorescence, mean of three wells (reading M62 of time course): 0.4707 | Th-T fluorescence of Aβ42 with compound, mean of three wells (Fig. 7a source data) (concentration 10, unit not given, time-course reading M129): 1.537 | Th-T fluorescence of Aβ42 with compound, mean of three wells (Fig. 7a source data) (concentration 10, unit not given, time-course reading M130): 1.546 | Th-T fluorescence of Aβ42 with compound, mean of three wells (Fig. 7a source data) (concentration 10, unit not given, time-course reading M131): 1.547 | Th-T fluorescence of Aβ42 with compound, mean of three wells (Fig. 7a source data) (concentration 10, unit not given, time-course reading M132): 1.542 | Th-T fluorescence of Aβ42 with compound, mean of three wells (Fig. 7a source data) (concentration 10, unit not given, time-course reading M133): 1.541 | Th-T fluorescence of Aβ42 with compound, mean of three wells (Fig. 7a source data) (concentration 10, unit not given, time-course reading M134): 1.54 | Th-T fluorescence of Aβ42 with compound, mean of three wells (Fig. 7a source data) (concentration 10, unit not given, time-course reading M135): 1.5371 | Th-T fluorescence of Aβ42 with compound, mean of three wells (Fig. 7a source data) (concentration 10, unit not given, time-course reading M136): 1.543 | Th-T fluorescence of Aβ42 with compound, mean of three wells (Fig. 7a source data) (concentration 10, unit not given, time-course reading M137): 1.53 | Th-T fluorescence of Aβ42 with compound, mean of three wells (Fig. 7a source data) (concentration 10, unit not given, time-course reading M138): 1.542 | Th-T fluorescence of Aβ42 with compound, mean of three wells (Fig. 7a source data) (concentration 10, unit not given, time-course reading M139): 1.54 | Th-T fluorescence of Aβ42 with compound, mean of three wells (Fig. 7a source data) (concentration 10, unit not given, time-course reading M140): 1.544 | Th-T fluorescence of Aβ42 with compound, mean of three wells (Fig. 7a source data) (concentration 10, unit not given, time-course reading M141): 1.531 | Th-T fluorescence of Aβ42 with compound, mean of three wells (Fig. 7a source data) (concentration 10, unit not given, time-course reading M142): 1.539 | Th-T fluorescence of Aβ42 with compound, mean of three wells (Fig. 7a source data) (concentration 10, unit not given, time-course reading M143): 1.544 | Th-T fluorescence of Aβ42 with compound, mean of three wells (Fig. 7a source data) (concentration 10, unit not given, time-course reading M144): 1.537 | Th-T fluorescence of Aβ42 with compound, mean of three wells (Fig. 7a source data) (concentration 10, unit not given, time-course reading M145): 1.534 | Th-T fluorescence of Aβ42 with compound, mean of three wells (Fig. 7a source data) (concentration 20, unit not given, time-course reading M129): 1.025 | Th-T fluorescence of Aβ42 with compound, mean of three wells (Fig. 7a source data) (concentration 20, unit not given, time-course reading M130): 1.025 | Th-T fluorescence of Aβ42 with compound, mean of three wells (Fig. 7a source data) (concentration 20, unit not given, time-course reading M131): 1.024 | Th-T fluorescence of Aβ42 with compound, mean of three wells (Fig. 7a source data) (concentration 20, unit not given, time-course reading M132): 1.024 | Th-T fluorescence of Aβ42 with compound, mean of three wells (Fig. 7a source data) (concentration 20, unit not given, time-course reading M133): 1.026 | Th-T fluorescence of Aβ42 with compound, mean of three wells (Fig. 7a source data) (concentration 20, unit not given, time-course reading M134): 1.029 | Th-T fluorescence of Aβ42 with compound, mean of three wells (Fig. 7a source data) (concentration 20, unit not given, time-course reading M135): 1.025 | Th-T fluorescence of Aβ42 with compound, mean of three wells (Fig. 7a source data) (concentration 20, unit not given, time-course reading M136): 1.027 | Th-T fluorescence of Aβ42 with compound, mean of three wells (Fig. 7a source data) (concentration 20, unit not given, time-course reading M137): 1.027 | Th-T fluorescence of Aβ42 with compound, mean of three wells (Fig. 7a source data) (concentration 20, unit not given, time-course reading M138): 1.029 | Th-T fluorescence of Aβ42 with compound, mean of three wells (Fig. 7a source data) (concentration 20, unit not given, time-course reading M139): 1.029 | Th-T fluorescence of Aβ42 with compound, mean of three wells (Fig. 7a source data) (concentration 20, unit not given, time-course reading M140): 1.019 | Th-T fluorescence of Aβ42 with compound, mean of three wells (Fig. 7a source data) (concentration 20, unit not given, time-course reading M141): 1.021 | Th-T fluorescence of Aβ42 with compound, mean of three wells (Fig. 7a source data) (concentration 20, unit not given, time-course reading M142): 1.024 | Th-T fluorescence of Aβ42 with compound, mean of three wells (Fig. 7a source data) (concentration 20, unit not given, time-course reading M143): 1.022 | Th-T fluorescence of Aβ42 with compound, mean of three wells (Fig. 7a source data) (concentration 20, unit not given, time-course reading M144): 1.02 | Th-T fluorescence of Aβ42 with compound, mean of three wells (Fig. 7a source data) (concentration 20, unit not given, time-course reading M145): 1.019 | Th-T fluorescence of Aβ42 with compound, mean of three wells (Fig. 7a source data) (concentration 50, unit not given, time-course reading M129): 0.475 | Th-T fluorescence of Aβ42 with compound, mean of three wells (Fig. 7a source data) (concentration 50, unit not given, time-course reading M130): 0.4748 | Th-T fluorescence of Aβ42 with compound, mean of three wells (Fig. 7a source data) (concentration 50, unit not given, time-course reading M131): 0.479 | Th-T fluorescence of Aβ42 with compound, mean of three wells (Fig. 7a source data) (concentration 50, unit not given, time-course reading M132): 0.4776 | Th-T fluorescence of Aβ42 with compound, mean of three wells (Fig. 7a source data) (concentration 50, unit not given, time-course reading M133): 0.4741 | Th-T fluorescence of Aβ42 with compound, mean of three wells (Fig. 7a source data) (concentration 50, unit not given, time-course reading M134): 0.4743 | Th-T fluorescence of Aβ42 with compound, mean of three wells (Fig. 7a source data) (concentration 50, unit not given, time-course reading M135): 0.479 | Th-T fluorescence of Aβ42 with compound, mean of three wells (Fig. 7a source data) (concentration 50, unit not given, time-course reading M136): 0.4773 | Th-T fluorescence of Aβ42 with compound, mean of three wells (Fig. 7a source data) (concentration 50, unit not given, time-course reading M137): 0.4745 | Th-T fluorescence of Aβ42 with compound, mean of three wells (Fig. 7a source data) (concentration 50, unit not given, time-course reading M138): 0.4775 | Th-T fluorescence of Aβ42 with compound, mean of three wells (Fig. 7a source data) (concentration 50, unit not given, time-course reading M139): 0.4782 | Th-T fluorescence of Aβ42 with compound, mean of three wells (Fig. 7a source data) (concentration 50, unit not given, time-course reading M140): 0.4767 | Th-T fluorescence of Aβ42 with compound, mean of three wells (Fig. 7a source data) (concentration 50, unit not given, time-course reading M141): 0.4755 | Th-T fluorescence of Aβ42 with compound, mean of three wells (Fig. 7a source data) (concentration 50, unit not given, time-course reading M142): 0.4776
